Results as given in ChEMBL document CHEMBL1128092, “Potent, orally bioavailable HIV-1 protease inhibitors containing noncoded D-amino acids” (Bioorg Med Chem Lett, 1995).

What was measured:
[1] = target: Human immunodeficiency virus type 1 protease (Human immunodeficiency virus 1, UniProt Q72874); assay: Inhibitory activity against HIV-1 protease
CCRF-CEM [2] = assay: (§1) Antiviral activity to inhibit viral replication of HIV-1 infected CEM cells; assay type: functional, cell-based; settings: Homo sapiens
CCRF-CEM [3] = assay: as §1; assay type: functional; settings: Homo sapiens

| IC50 [1] | IC50 (CCRF-CEM [2]) | Structure (SMILES) | IC95 (CCRF-CEM [3]) |
| --- | --- | --- | --- |
| 0.5 nM | 3.2 nM | CC(C)(C)NC(=O)[C@@H]1C[C@@H]2CCCC[C@@H]2CN1C[C@@H](O)[C@H](Cc1ccccc1)NC(=O)[C@@H](CS(=O)(=O)c1ccc2ccccc2c1)NS(C)(=O)=O | 10 nM |
| 6 nM | 77 nM | CC(=O)N[C@H](CSCc1ccccc1)C(=O)N[C@@H](Cc1ccccc1)[C@H](O)CN1C[C@H]2CCCC[C@H]2C[C@H]1C(=O)NC(C)(C)C | 305 nM |
| 5.1 nM | 71 nM | CC(C)(C)NC(=O)[C@@H]1C[C@@H]2CCCC[C@@H]2CN1C[C@@H](O)[C@H](Cc1ccccc1)NC(=O)[C@@H](CSc1ccc2ccccc2c1)NS(C)(=O)=O | 1900 nM |
| < 0.2 nM | 27 nM | CC(C)(C)NC(=O)[C@@H]1C[C@@H]2SCC[C@@H]2CN1C[C@@H](O)[C@H](Cc1ccccc1)NC(=O)[C@@H](CS(=O)(=O)c1ccc2ccccc2c1)NS(C)(=O)=O | 85 nM |
| 0.5 nM | 1.9 nM | CC(=O)N[C@H](CS(=O)(=O)c1ccc2ccccc2c1)C(=O)N[C@@H](Cc1ccccc1)[C@H](O)CN1C[C@H]2CCS[C@H]2C[C@H]1C(=O)NC(C)(C)C | 23 nM |
|  | 70 nM | CC(=O)N[C@H](CS(=O)(=O)c1ccc(F)cc1)C(=O)N[C@@H](Cc1ccccc1)[C@H](O)CN1C[C@H]2CCS[C@H]2C[C@H]1C(=O)NC(C)(C)C | 730 nM |
| 1.8 nM | 57 nM | CC(=O)N[C@H](CS(=O)(=O)c1ccc(F)cc1)C(=O)N[C@@H](CSc1ccccc1)[C@H](O)CN1C[C@H]2CCS[C@H]2C[C@H]1C(=O)NC(C)(C)C | 180 nM |
| 0.71 nM | 72 nM | CC(C)(C)NC(=O)[C@@H]1C[C@@H]2SCC[C@@H]2CN1C[C@@H](O)[C@H](Cc1ccccc1)NC(=O)[C@@H](CS(=O)(=O)c1cccc2cccnc12)NS(C)(=O)=O | 250 nM |
| 0.4 nM | 3.8 nM | CC(C)(C)NC(=O)[C@@H]1C[C@@H]2CCCC[C@@H]2CN1C[C@@H](O)[C@H](Cc1ccccc1)NC(=O)[C@@H](C[S+]([O-])c1ccc2ccccc2c1)NS(C)(=O)=O (some centres undefined) | 8.2 nM |
| 10 nM | 10000 nM | CC(C)CN(C[C@@H](O)[C@H](Cc1ccccc1)NC(=O)[C@@H](CS(=O)(=O)c1ccc(F)cc1)NS(C)(=O)=O)C(=O)NC(C)(C)C | 21000 nM |
| 85 nM | 17000 nM | CC(C)CN(C[C@@H](O)[C@H](Cc1ccccc1)NC(=O)[C@@H](CSc1ccc(F)cc1)NS(C)(=O)=O)C(=O)NC(C)(C)C | 36000 nM |
| 0.6 nM | 9.1 nM | CC(C)(C)NC(=O)[C@@H]1C[C@@H]2CCCC[C@@H]2CN1C[C@@H](O)[C@H](Cc1ccccc1)NC(=O)[C@@H](C[S+]([O-])c1ccc(F)cc1)NS(C)(=O)=O (some centres undefined) | 31 nM |
| < 0.2 nM | 4.6 nM | CC(C)(C)NC(=O)[C@@H]1C[C@@H]2SCC[C@@H]2CN1C[C@@H](O)[C@H](Cc1ccccc1)NC(=O)[C@@H](CS(=O)(=O)c1ccc2ccccc2c1)NC(=O)C(F)(F)F | 32 nM |
| 1.8 nM | 57 nM | CC(C)(C)NC(=O)[C@@H]1C[C@@H]2SCC[C@@H]2CN1C[C@@H](O)[C@H](CSc1ccccc1)NC(=O)[C@@H](CS(=O)(=O)c1ccc2ccccc2c1)NC(=O)C(F)(F)F | 240 nM |
| 2 nM | 17 nM | CC(C)(C)NC(=O)[C@@H]1C[C@@H]2CCCC[C@@H]2CN1C[C@@H](O)[C@H](Cc1ccccc1)NC(=O)[C@@H](CS(=O)(=O)c1ccc(F)cc1)NS(C)(=O)=O | 54 nM |
| 1.6 nM | 9.5 nM | CC(=O)N[C@H](CS(=O)(=O)c1ccc2ccccc2c1)C(=O)N[C@@H](Cc1ccccc1)[C@H](O)CN1C[C@H]2CCCC[C@H]2C[C@H]1C(=O)NC(C)(C)C | 22 nM |
| 50 nM | 4700 nM | CC(C)CN(C[C@@H](O)[C@H](Cc1ccccc1)NC(=O)[C@@H](CSc1ccc2ccccc2c1)NS(C)(=O)=O)C(=O)NC(C)(C)C | 9900 nM |
| < 0.2 nM | 15 nM | CC(C)(C)NC(=O)[C@@H]1C[C@@H]2SCC[C@@H]2CN1C[C@@H](O)[C@H](Cc1ccccc1)NC(=O)[C@@H](CS(=O)(=O)c1ccc(F)cc1)NC(=O)C(F)(F)F | 58 nM |
| 1.7 nM | 1.9 nM | CC(=O)N[C@H](CS(=O)(=O)c1cccc2cccnc12)C(=O)N[C@@H](Cc1ccccc1)[C@H](O)CN1C[C@H]2CCCC[C@H]2C[C@H]1C(=O)NC(C)(C)C | 64 nM |
| 2.1 nM | 14 nM | CC(C)CN(C[C@@H](O)[C@H](Cc1ccccc1)NC(=O)[C@@H](C[S+]([O-])c1ccc2ccccc2c1)NS(C)(=O)=O)C(=O)NC(C)(C)C (some centres undefined) | 62 nM |
| 24 nM | 150 nM | CC(C)(C)NC(=O)[C@@H]1C[C@@H]2CCCC[C@@H]2CN1C[C@@H](O)[C@H](Cc1ccccc1)NC(=O)[C@@H](CSc1ccc(F)cc1)NS(C)(=O)=O | 550 nM |
| 10 nM | 180 nM | CC(C)(C)NC(=O)[C@@H]1C[C@@H]2SCC[C@@H]2CN1C[C@@H](O)[C@H](CSc1ccccc1)NC(=O)[C@@H](CS(=O)(=O)c1ccc(F)cc1)NC(=O)C(F)(F)F | 840 nM |
| 0.22 nM | 43 nM | CC(C)(C)NC(=O)[C@@H]1C[C@@H]2SCC[C@@H]2CN1C[C@@H](O)[C@H](Cc1ccccc1)NC(=O)[C@@H](CS(=O)(=O)c1ccc(F)cc1)NS(C)(=O)=O | 190 nM |
| 0.42 nM | 140 nM | CC(=O)N[C@H](CS(=O)(=O)c1cccc2cccnc12)C(=O)N[C@@H](Cc1ccccc1)[C@H](O)CN1C[C@H]2CCS[C@H]2C[C@H]1C(=O)NC(C)(C)C | 300 nM |
| 0.21 nM | 18 nM | CC(C)(C)NC(=O)[C@@H]1C[C@@H]2SCC[C@@H]2CN1C[C@@H](O)[C@H](Cc1ccccc1)NC(=O)[C@@H](CS(=O)(=O)c1cccc2cccnc12)NC(=O)C(F)(F)F | 62 nM |
